Our source for the IC50 values is US20110053897A1 (IRM LLC, priority 2009, published 2011).

In one test the target is T1, Syk kinase (Homo sapiens, UniProt P43405).
T1 construct: purchased
In words: Syk kinase inhibition, Caliper LabChip off-chip mobility-shift kinase assay. It is filed as biochemical. Particulars: Caliper LabChip assay; read-out: Syk Enzyme IC50. Summed up: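 Purified Syk pre-incubated 15 min with compound in 100 mM HEPES pH 7.5, 1 mM DTT, 10 mM MgCl2 or MnCl2, 0.002% Brij-35, then 1.5 μM fluorescein peptide and ATP at apparent KM added; 1–1.5 h at room temperature, 4% DMSO, EDTA stop. Microfluidic mobility-shift product/substrate conversion gave % inhibition; IC50 from 12-point series (10–0.00003 μM) by 4-parameter fit.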
Regarding `CCn1ccc2cc(-c3cnc(N)nc3)nc(NC(C)(C)CCO)c2c1=O` [compound 1037], the IC50 stood at 14 nM.

Turning to `CC(C)(C)Nc1nc(Nc2cc(/C=C/CCO)ncn2)cc2ccn(CCO)c(=O)c12` [compound 627], the IC50 amounted to 60 nM.

With `CC1(Nc2nc(-c3cnc(N)nc3)cc3ccn(C4COC4)c(=O)c23)CCC1` [compound 931], the 50% inhibitory concentration (IC50) was found to be 15 nM.

Consider `CC(C)(C)Nc1nc(Nc2cnccn2)cc2ccn(CC(N)=O)c(=O)c12` [compound 662], for which the IC50 came to 17 nM.

`CC(C)(C)Nc1nc(Nc2cc(C3(O)CCC3)ccn2)cc2ccn(CCO)c(=O)c12` [compound 870]: the IC50 came to 76 nM.

For `COCCCc1cc(Nc2cc3ccn(CCO)c(=O)c3c(NC(C)(C)C)n2)ncn1` [compound 622], the IC50 worked out at 85 nM.

For `CCn1ccc2cc(Nc3cc(C)ccn3)nc(NC(C)(C)CCO)c2c1=O` [compound 782], the IC50 worked out at 217 nM.

Consider `CCn1ccc2cc(Nc3cc(C)ccn3)nc(Nc3ccc(C(=O)N4CCC(O)CC4)cc3)c2c1=O` [compound 835], for which the IC50 worked out at 131 nM.

In the case of `CC(C)(C)Nc1nc(Nc2cnccn2)cc2ccn(CCC#N)c(=O)c12` [compound 1004], the IC50 was 19 nM.

On to `CCn1ccc2cc(Nc3cnccn3)nc(N[C@@H]3CCC[C@@H]3CO)c2c1=O` [compound 942], for which the IC50 was 87 nM.

Consider `CC1(Cn2ccc3cc(-c4cnc(N)nc4)nc(NC4CCOCC4)c3c2=O)COC1` [compound 769], for which the half-inhibitory concentration (IC50) stood at 66 nM.

In the case of `CC(C)(C)Nc1nc(-c2cnc(N)nc2)cc2ccn(CCN3CCOCC3)c(=O)c12` [compound 1033], the IC50 worked out at 60 nM.

For the compound `CC(C)n1ccc2cc(Nc3c[n+]([O-])ccn3)nc(N[C@H]3CC[C@@H](CO)C3)c2c1=O` [compound 1018], the IC50 stood at 13 nM.

For the compound `Cc1ccnc(Nc2cc3ccn(CCN4CCOCC4)c(=O)c3c(N[C@@H](C)CO)n2)c1` [compound 995], the IC50 amounted to 53 nM.

For `CCn1ccc2cc(Nc3nccc(O)n3)nc(N)c2c1=O` [compound 803], the 50% inhibitory concentration (IC50) amounted to 307 nM.

Turning to `CC(C)(C)Nc1nc(-c2cnc(N)nc2)cc2c(Cl)cn(CCO)c(=O)c12` [compound 666], the half-maximal inhibitory concentration (IC50) stood at 28 nM.

Consider `CC(C)(C)Nc1nc(Nc2cc(-c3cn[nH]c3)ncn2)cc2ccn(CCO)c(=O)c12` [compound 639], for which the IC50 came to 285 nM.

Consider `CC(C)(C)Nc1nc(Nc2cc(C3(O)COC3)ccn2)cc2ccn(CCO)c(=O)c12` [Compound No. 609, 8-(tert-butylamino)-2-(2-hydroxyethyl)-6-(4-(3-hydroxyoxetan-3-yl)pyridin-2-ylamino)-2,7-naphthyridin-1(2H)-one], for which the concentration for half-maximal inhibition (IC50) was found to be 12 nM.

Turning to `CC(C)(C)Nc1nc(Nc2nccc(O)n2)cc2ccn(CCO)c(=O)c12` [compound 826], the IC50 worked out at 25 nM.

For `CCn1ccc2cc(Nc3cc(C)ccn3)nc(N[C@H](CO)C(C)C)c2c1=O` [compound 1041], the half-maximal inhibitory concentration (IC50) is 158 nM.

Turning to `[2H][C@]1(O)CC[C@H](Nc2nc(Nc3cc(C)ccn3)cc3ccn(CC)c(=O)c23)CC1` [compound 990], the IC50 is 20 nM.

Consider `COC(C)c1ccnc(Nc2cc3ccn(CCO)c(=O)c3c(NC(C)(C)C)n2)c1` (stereo not drawn) [compound 868], for which the IC50 amounted to 16 nM.

On to `Cc1nc(-c2ccnc(Nc3cc4ccn(CCO)c(=O)c4c(NC(C)(C)C)n3)c2)no1` [compound 873], for which the IC50 was determined as 27 nM.

Turning to `Nc1ncc(-c2cc3ccn(CCO)c(=O)c3c(NC3CC3)n2)cn1` [compound 1035], the IC50 was 38 nM.

`CC1(Cn2ccc3cc(Nc4cnccn4)nc(NC4CCCC4)c3c2=O)COC1` [compound 762]: the IC50 turned out to be 22 nM.

Regarding `CC(C)(C)Nc1nc(-c2cnc(N)nc2)cc2ccn(CC(=O)O)c(=O)c12` [compound 667], the IC50 is 23 nM.

Turning to `O=c1[nH]ccc2cc(Nc3cnccn3)nc(N[C@H]3CC[C@H](O)CC3)c12` [compound 976], the concentration for half-maximal inhibition (IC50) stood at 5 nM.

As for `CC(C)(C)Nc1nc(Nc2cc(C(C)(C)O)c(F)cn2)cc2ccn(CCO)c(=O)c12` [compound 717], the IC50 was 18 nM.

`CCn1ccc2cc(Nc3cc(C)ccn3)nc(NC3CCCC(O)C3)c2c1=O` (stereo not drawn) [compound 972]: the IC50 worked out at 59 nM.

With `CCn1ccc2cc(Nc3nccc(O)n3)nc(N[C@@H]3CC[C@H](O)C3)c2c1=O` [compound 958], the IC50 amounted to 22 nM.

In the case of `N#CCn1ccc2cc(Nc3cnccn3)nc(NC3CCCC3)c2c1=O` [compound 753], the IC50 was found to be 27 nM.

The test is the same for the next values; noted with them: read-out: Syk Enzyme IC50.
With `O=c1[nH]ccc2cc(Nc3ccccn3)nc(N3CCOCC3)c12` [compound 286], the 50% inhibitory concentration (IC50) was 951 nM.

In the case of `CNC(=O)c1ccc(Nc2nc(Nc3cc(C)ccn3)cc3ccn(C)c(=O)c23)cc1` [compound 342], the IC50 stood at 222 nM.

As to `CCn1ccc2cc(Nc3cnc(C)cn3)nc(N[C@@H](C)CO)c2c1=O` [compound 394], the IC50 came to 384 nM.

Regarding `COCCCNc1nc(Nc2ccccn2)cc2cc[nH]c(=O)c12` [compound 190], the IC50 was determined as 286 nM.

As to `COCC(C)N1CCC(c2ccc(Nc3nc(-c4cncc(OC)n4)cc4cc[nH]c(=O)c34)cc2C)CC1` (stereo not drawn) [compound 174], the IC50 came out at 14 nM.

Consider `Cc1ccnc(Nc2cc3ccn(C)c(=O)c3c(NC(C)(C)CO)n2)c1` [compound 486], for which the IC50 amounted to 45 nM.

For `CCn1ccc2cc(Nc3cnccn3)nc(N[C@H]3CCC[C@H]3O)c2c1=O` [compound 421], the IC50 is 23.6 nM.

Regarding `CO/N=C(\C)c1cc2cc[nH]c(=O)c2c(Nc2ccc(C3CCN(C4CC4)CC3)c(C)c2)n1` [compound 237], the 50% inhibitory concentration (IC50) was 407 nM.

With `CCN1CCN(c2n[nH]c3cc(Nc4nc(-c5cncnc5)cc5cc[nH]c(=O)c45)ccc23)CC1` [compound 199], the IC50 turned out to be 20 nM.

As for `CC(=O)N1CCN(CCc2ccc(Nc3nc(Nc4ccc(C)cn4)cc4cc[nH]c(=O)c34)cc2)CC1` [compound 541], the IC50 stood at 1120 nM.

As for `Cn1ccc2cc(Nc3cnccn3)nc(NC(C)(C)CO)c2c1=O` [compound 472], the IC50 stood at 155 nM.

Turning to `Cc1ccnc(Nc2cc3ccn(C)c(=O)c3c(Nc3ccc(S(C)(=O)=O)cc3)n2)c1` [compound 332], the IC50 is 78 nM.

On to `COc1cncc(-c2cc3cc[nH]c(=O)c3c(Nc3ccc(CCN4CCC(OC)CC4)cc3)n2)n1` [compound 23], for which the IC50 is 39 nM.

With `CC(=O)N1CCC(c2ccc(Nc3nc(Nc4cc(C)ccn4)cc4ccn(C)c(=O)c34)cc2)CC1` [compound 310], the IC50 was 763 nM.

As to `Cn1ccc2cc(Nc3cnccn3)nc(N[C@H]3CCC[C@H]3O)c2c1=O` (racemic) [compound 328], the 50% inhibitory concentration (IC50) was found to be 39 nM.

As to `Cc1ccnc(Nc2cc3cc[nH]c(=O)c3c(NC3CCOCC3)n2)c1` [compound 293], the IC50 was 145 nM.

Regarding `[2H]C([2H])([2H])n1ccc2cc(Nc3cc(C)c(Cl)cn3)nc(NC(C)(C)C)c2c1=O` [compound 537], the IC50 was found to be 502 nM.

Regarding `CCN1CCN(C(=O)c2ccc(Nc3nc(-c4cncc(OC)n4)cc4cc[nH]c(=O)c34)cc2)CC1` [compound 64], the IC50 worked out at 35 nM.

Turning to `Cn1ccc2cc(Nc3cnccn3)nc(Nc3ccc(C4CCNCC4)cc3)c2c1=O` [compound 341], the IC50 is 112 nM.

As for `CNC(=O)CN1CCC(c2ccc(Nc3nc(-c4cncc(OC)n4)cc4cc[nH]c(=O)c34)cc2C)CC1` [compound 135], the IC50 was determined as 48 nM.

Regarding `COc1cncc(-c2cc3cc[nH]c(=O)c3c(Nc3ccc(C4CCN(C(=O)C5(N)CC5)CC4)c(C)c3)n2)n1` [compound 60], the half-maximal inhibitory concentration (IC50) was found to be 155 nM.

For the compound `O=c1[nH]ccc2cc(-c3cncnc3)nc(Nc3ccc([C@H]4CC[C@@H](N5CCOCC5)CC4)cc3)c12` [compound 10], the IC50 was found to be 266 nM.

Regarding `N#Cc1ccc(Nc2cc3cc[nH]c(=O)c3c(Nc3ccc(N4CCOCC4)cc3)n2)nc1` [compound 515], the IC50 amounted to 301 nM.

In the case of `Cc1ccnc(Nc2cc3ccn(C)c(=O)c3c(N[C@H]3CC[C@H](O)CC3)n2)c1` [compound 357], the IC50 is 41 nM.

For `CC[C@H](C)Nc1nc(Nc2ccccn2)cc2cc[nH]c(=O)c12` [compound 290], the IC50 is 271 nM.

`CCC(C(=O)OC)N1CCC(c2ccc(Nc3nc(-c4cncc(OC)n4)cc4cc[nH]c(=O)c34)cc2C)CC1` (stereo not drawn) [compound 118]: the concentration for half-maximal inhibition (IC50) amounted to 346 nM.

Take `CC[C@H](C)Nc1nc(Nc2cc(C)ccn2)cc2cc[nH]c(=O)c12` [compound 283]: the 50% inhibitory concentration (IC50) was 443 nM.

For `Cc1ccc(-c2cc3cc[nH]c(=O)c3c(Nc3cnn(CCN4CCOCC4)c3)n2)cn1` [compound 126], the IC50 turned out to be 100 nM.

For `[2H]C([2H])([2H])n1ccc2cc(Nc3cc(C)ccn3)nc(N[C@@H](C)CO)c2c1=O` [compound 398], the IC50 was determined as 46 nM.

As for `CCCNC(=O)c1ccc(Nc2nc(Nc3cnccn3)cc3ccn(C)c(=O)c23)cc1` [compound 366], the concentration for half-maximal inhibition (IC50) was 323 nM.

Take `COCCCN1CCC(c2ccc(Nc3nc(-c4cncc(OC)n4)cc4cc[nH]c(=O)c34)cc2C)CC1` [compound 141]: the IC50 stood at 7 nM.

For `CC(C)Nc1nc(Nc2cnccn2)cc2ccn(CCO)c(=O)c12` [compound 318], the IC50 was 52 nM.

With `CCCNC(=O)c1ccc(Nc2cc3ccn(C)c(=O)c3c(N)n2)nc1` [compound 575], the half-maximal inhibitory concentration (IC50) turned out to be 2610 nM.

As to `Cc1ccnc(Nc2cc3cc[nH]c(=O)c3c(NCCO)n2)c1` [compound 561], the half-inhibitory concentration (IC50) came to 501 nM.

For the compound `CCn1ccc2cc(Nc3cc(C)ccn3)nc(N[C@@H](C)CO)c2c1=O` [compound 359], the IC50 amounted to 25 nM.

As for `Cc1ccnc(Nc2cc3ccn(C)c(=O)c3c(NC(C)C)n2)c1` [compound 508], the half-maximal inhibitory concentration (IC50) was 153 nM.

Consider `COCC(Cl)C(=O)N1CCC(c2ccc(Nc3nc(-c4cncc(OC)n4)cc4cc[nH]c(=O)c34)cc2C)CC1` (stereo not drawn) [compound 90], for which the IC50 turned out to be 204 nM.

With `Cn1ccc2cc(Nc3cnccn3)nc(N[C@H]3CC[C@@H](O)CC3)c2c1=O` [compound 330], the IC50 is 24 nM.

As usually defined, the IC50 is the point on the concentration scale where inhibition reaches its midpoint.
